Assay: Antagonist activity at CXCR4 in human CCRF-CEM cells assessed as inhibition of CXCL12-induced CXCR4+ cell migration pre-incubated for 10 mins before CXCL12 addition and measured after 2.5 hrs by flow cytometric analysis

EC50: 14 nM
Compound: Cc1cc(NC2CCN(C(=O)CCNCC(=O)O)CC2)nc(NCc2cn(CCCNCCCNC3CCCCC3)nn2)n1

— BindingDB's records for doi:10.1021/acs.jmedchem.7b01322 (National Health Research Institutes, 2018)
